# Assays:
# [1] = test system: primary murine T-cells; test: Cytokine secretion on protein level in activated primary murine T-cells (13-plex FACS / Luminex, supernatant); format: cell-based, C57BL/6 mice; settings: for IL-1 cytokine concentration / IL-2 cytokine concentration / IL-4 cytokine concentration / IL-5 cytokine concentration / IL-6 cytokine concentration / IL-10 cytokine concentration / IL-13 cytokine concentration / IL-17 cytokine concentration / IL-21 cytokine concentration / IL-22 cytokine concentration / IL-27 cytokine concentration / TNF-α cytokine concentration / IFN-γ cytokine concentration: substance 10^−9M
# Procedure, shortened: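 T-cells from secondary lymphatic organs of naïve C57BL/6 mice, stimulated with PMA/Ionomycin or IFN-γ; supernatant cytokines measured by 13-plex FACS 48 h and 72 h after stimulation. In another run, PMA/Ionomycin-stimulated cells received compounds at 10^−7, 10^−9 and 10^−11 M, with IFN-γ, IL-17 and IL-10 measured by Luminex.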
# [2] = test system: human keratinocyte cell line (HaCaT); test: Cytokine secretion on protein level in activated human keratinocyte cell line HaCaT (13-plex FACS / Luminex, supernatant); format: cell-based; settings: substance 10^−9M
# Procedure, shortened: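 Primary T-cells from peripheral blood of healthy volunteers, or HaCaT cells, were activated with PMA/Ionomycin or IFN-γ for 48 h and treated with tripeptides. Supernatants were collected 48 h and 72 h after stimulation and cytokines (IL-1, IL-2, IL-6, IL-12p70, IL-17, IFN-γ, TNF-α) were measured by 13-plex FACS.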
# [3] = test system: primary human T-cells; test: Cytokine secretion on protein level in activated primary human T-cells (13-plex FACS / Luminex, supernatant); format: cell-based; settings: for IL-1 cytokine concentration / IL-2 cytokine concentration / IL-4 cytokine concentration / IL-5 cytokine concentration / IL-6 cytokine concentration / IL-9 cytokine concentration / IL-10 cytokine concentration / IL-12p70 cytokine concentration / IL-13 cytokine concentration / IL-17 cytokine concentration / IL-22 cytokine concentration / TNF-α cytokine concentration / INF-α cytokine concentration: substance 10^−9M
# Procedure, shortened: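 Stimulus: PMA/Ionomycin or IFN-γ, 48 h; cells: HaCaT or human peripheral-blood T-cells; tripeptide treatment; readout: supernatant cytokines via 13-plex FACS or Luminex, 48–72 h post-stimulation.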
# [4] = primary murine T-cells stimulated with IFN-γ
# [5] = primary murine T-cells stimulated with PBS
# [6] = primary murine T-cells stimulated with PMA/Ionomycin
# [7] = HaCaT stimulated with PMA/Ionomycin
# [8] = primary human T-cells stimulated with IFN-γ
# [9] = primary human T-cells stimulated with PBS
# [10] = primary human T-cells stimulated with PMA/Ionomycin
substance,measurement,setting,value
"N^α,N^α-dimethyl-(L)-Phe-(D)-Pro-N^α-methyl-(L)-Thr-OH [Example 7]",secretion / expression of pro-inflammatory cytokines (supernatant),[1]; activated primary murine T-cells,immunomodulatory effects were seen
same,IL-1 cytokine concentration,[1]; [4],88.23 pg/mL
same,IL-2 cytokine concentration,[1]; [4],98.22 pg/mL
same,IL-4 cytokine concentration,[1]; [4],40.87 pg/mL
same,IL-5 cytokine concentration,[1]; [4],265.4 pg/mL
same,IL-6 cytokine concentration,[1]; [4],123.98 pg/mL
same,IL-10 cytokine concentration,[1]; [4],1199.53 pg/mL
same,IL-13 cytokine concentration,[1]; [4],0 pg/mL
same,IL-17 cytokine concentration,[1]; [4],84.26 pg/mL
same,IL-21 cytokine concentration,[1]; [4],0 pg/mL
same,IL-22 cytokine concentration,[1]; [4],50.37 pg/mL
same,IL-27 cytokine concentration,[1]; [4],0 pg/mL
same,TNF-α cytokine concentration,[1]; [4],25.58 pg/mL
same,IFN-γ cytokine concentration,[1]; [5],0 pg/mL
same,IL-1 cytokine concentration,[1]; [5],62.38 pg/mL
same,IL-2 cytokine concentration,[1]; [5],137.05 pg/mL
same,IL-4 cytokine concentration,[1]; [5],60.56 pg/mL
same,IL-5 cytokine concentration,[1]; [5],317.47 pg/mL
same,IL-6 cytokine concentration,[1]; [5],129.26 pg/mL
same,IL-10 cytokine concentration,[1]; [5],1283.71 pg/mL
same,IL-13 cytokine concentration,[1]; [5],0 pg/mL
same,IL-17 cytokine concentration,[1]; [5],0 pg/mL
same,IL-21 cytokine concentration,[1]; [5],0 pg/mL
same,IL-22 cytokine concentration,[1]; [5],15.86 pg/mL
same,IL-27 cytokine concentration,[1]; [5],61.43 pg/mL
same,TNF-α cytokine concentration,[1]; [5],53.67 pg/mL
same,IFN-γ cytokine concentration,[1]; [6],1916.21 pg/mL
same,IL-1 cytokine concentration,[1]; [6],154.26 pg/mL
same,IL-2 cytokine concentration,[1]; [6],99.71 pg/mL
same,IL-4 cytokine concentration,[1]; [6],99.12 pg/mL
same,IL-5 cytokine concentration,[1]; [6],246.42 pg/mL
same,IL-6 cytokine concentration,[1]; [6],184.98 pg/mL
same,IL-10 cytokine concentration,[1]; [6],1233.22 pg/mL
same,IL-13 cytokine concentration,[1]; [6],0 pg/mL
same,IL-17 cytokine concentration,[1]; [6],67.92 pg/mL
same,IL-21 cytokine concentration,[1]; [6],0 pg/mL
same,IL-22 cytokine concentration,[1]; [6],71.09 pg/mL
same,IL-27 cytokine concentration,[1]; [6],90.15 pg/mL
same,TNF-α cytokine concentration,[1]; [6],40.87 pg/mL
same,IL-1 cytokine concentration,[2]; HaCaT stimulated with IFN-γ,109.65 pg/mL
same,IL-2 cytokine concentration,[2]; HaCaT stimulated with IFN-γ,267.78 pg/mL
same,IL-4 cytokine concentration,[2]; HaCaT stimulated with IFN-γ,0 pg/mL
same,IL-5 cytokine concentration,[2]; HaCaT stimulated with IFN-γ,0 pg/mL
same,IL-6 cytokine concentration,[2]; HaCaT stimulated with IFN-γ,470.44 pg/mL
same,IL-9 cytokine concentration,[2]; HaCaT stimulated with IFN-γ,14.88 pg/mL
same,IL-10 cytokine concentration,[2]; HaCaT stimulated with IFN-γ,0 pg/mL
same,IL-12p70 cytokine concentration,[2]; HaCaT stimulated with IFN-γ,0 pg/mL
same,IL-13 cytokine concentration,[2]; HaCaT stimulated with IFN-γ,1843.69 pg/mL
same,IL-17 cytokine concentration,[2]; HaCaT stimulated with IFN-γ,202.45 pg/mL
same,IL-22 cytokine concentration,[2]; HaCaT stimulated with IFN-γ,0 pg/mL
same,TNF-α cytokine concentration,[2]; HaCaT stimulated with IFN-γ,0 pg/mL
same,IFN-γ cytokine concentration,[2]; HaCaT stimulated with PBS,0 pg/mL
same,IL-1 cytokine concentration,[2]; HaCaT stimulated with PBS,181.03 pg/mL
same,IL-2 cytokine concentration,[2]; HaCaT stimulated with PBS,180.91 pg/mL
same,IL-4 cytokine concentration,[2]; HaCaT stimulated with PBS,0 pg/mL
same,IL-5 cytokine concentration,[2]; HaCaT stimulated with PBS,113.28 pg/mL
same,IL-6 cytokine concentration,[2]; HaCaT stimulated with PBS,119.59 pg/mL
same,IL-9 cytokine concentration,[2]; HaCaT stimulated with PBS,0 pg/mL
same,IL-10 cytokine concentration,[2]; HaCaT stimulated with PBS,0 pg/mL
same,IL-12p70 cytokine concentration,[2]; HaCaT stimulated with PBS,0 pg/mL
same,IL-13 cytokine concentration,[2]; HaCaT stimulated with PBS,1910.22 pg/mL
same,IL-17 cytokine concentration,[2]; HaCaT stimulated with PBS,0 pg/mL
same,IL-22 cytokine concentration,[2]; HaCaT stimulated with PBS,0 pg/mL
same,TNF-α cytokine concentration,[2]; HaCaT stimulated with PBS,21.66 pg/mL
same,IFN-γ cytokine concentration,[2]; [7],450.42 pg/mL
same,IL-1 cytokine concentration,[2]; [7],0 pg/mL
same,IL-2 cytokine concentration,[2]; [7],218.82 pg/mL
same,IL-4 cytokine concentration,[2]; [7],112.94 pg/mL
same,IL-5 cytokine concentration,[2]; [7],88.67 pg/mL
same,IL-6 cytokine concentration,[2]; [7],359.17 pg/mL
same,IL-9 cytokine concentration,[2]; [7],14.57 pg/mL
same,IL-10 cytokine concentration,[2]; [7],64.01 pg/mL
same,IL-12p70 cytokine concentration,[2]; [7],0 pg/mL
same,IL-13 cytokine concentration,[2]; [7],1877.03 pg/mL
same,IL-17 cytokine concentration,[2]; [7],209.12 pg/mL
same,IL-22 cytokine concentration,[2]; [7],0 pg/mL
same,TNF-α cytokine concentration,[2]; [7],0 pg/mL
same,secretion / expression of pro-inflammatory cytokines (supernatant),[3]; activated primary human T-cells,immunomodulatory effects were seen
same,IL-1 cytokine concentration,[3]; [8],0 pg/mL
same,IL-2 cytokine concentration,[3]; [8],0 pg/mL
same,IL-4 cytokine concentration,[3]; [8],83.34 pg/mL
same,IL-5 cytokine concentration,[3]; [8],0 pg/mL
same,IL-6 cytokine concentration,[3]; [8],56.38 pg/mL
same,IL-9 cytokine concentration,[3]; [8],0 pg/mL
same,IL-10 cytokine concentration,[3]; [8],69.21 pg/mL
same,IL-12p70 cytokine concentration,[3]; [8],0 pg/mL
same,IL-13 cytokine concentration,[3]; [8],59.7 pg/mL
same,IL-17 cytokine concentration,[3]; [8],0 pg/mL
same,IL-22 cytokine concentration,[3]; [8],0 pg/mL
same,TNF-α cytokine concentration,[3]; [8],0 pg/mL
same,IL-1 cytokine concentration,[3]; [9],154.31 pg/mL
same,IL-2 cytokine concentration,[3]; [9],126.59 pg/mL
same,IL-4 cytokine concentration,[3]; [9],0 pg/mL
same,IL-5 cytokine concentration,[3]; [9],8.58 pg/mL
same,IL-6 cytokine concentration,[3]; [9],122.64 pg/mL
same,IL-9 cytokine concentration,[3]; [9],13.42 pg/mL
same,IL-10 cytokine concentration,[3]; [9],121.25 pg/mL
same,IL-12p70 cytokine concentration,[3]; [9],0 pg/mL
same,IL-13 cytokine concentration,[3]; [9],0 pg/mL
same,IL-17 cytokine concentration,[3]; [9],95.69 pg/mL
same,IL-22 cytokine concentration,[3]; [9],0 pg/mL
same,INF-α cytokine concentration,[3]; [9],69.17 pg/mL
same,TNF-α cytokine concentration,[3]; [9],51.46 pg/mL
same,IL-1 cytokine concentration,[3]; [10],508.96 pg/mL
same,IL-2 cytokine concentration,[3]; [10],1650.58 pg/mL
same,IL-4 cytokine concentration,[3]; [10],72.07 pg/mL
same,IL-5 cytokine concentration,[3]; [10],357.88 pg/mL
same,IL-6 cytokine concentration,[3]; [10],1100.07 pg/mL
same,IL-9 cytokine concentration,[3]; [10],263.36 pg/mL
same,IL-10 cytokine concentration,[3]; [10],842.93 pg/mL
same,IL-12p70 cytokine concentration,[3]; [10],0 pg/mL
same,IL-13 cytokine concentration,[3]; [10],991.61 pg/mL
same,IL-17 cytokine concentration,[3]; [10],2611.96 pg/mL
same,IL-22 cytokine concentration,[3]; [10],0 pg/mL
same,INF-α cytokine concentration,[3]; [10],6989.26 pg/mL
same,TNF-α cytokine concentration,[3]; [10],2062.57 pg/mL
